Values joined by “and” are separate entries in the source; they are usually repeats but may differ in a detail not shown here. Identical values can stand only once.
Legend:
[1] = Stability of 6 compounds of SI in rat plasma; conditions: for 10h in auto-sampler vials RE: extracted rat plasma; for 6h at room temperature RE / Freeze-thaw stability (three cycles) RE / Long-term stability (-80℃,15 days) RE: rat plasma
Description: The LC-MS method was validated by linearity, limits of detection (LOD), limits of quantification (LOQ), precision, accuracy, extraction recovery, matrix effect and stability of the 6 ingredients in rat plasma. Calibration curves were plotted using weighted linear regression of the peak area ratio of analyte to the IS against the corresponding nominal concentration of the analyte. LOD and LOQ were defined as the detectable concentration at which the ratio of signal to noise was more than 3 and 10, respectively. Intra- and inter-day accuracy and precision were assessed by detecting quality control (QC) samples using five replicates of rat samples at three concentration levels on one or three validation days, respectively. Accuracy and precision were expressed by relative error (RE) and relative standard deviation (RSD), respectively. The extraction recovery and matrix effect of the 6 components at above-mentioned three concentration levels were determined. Stability was assessed under the condition of placing un-treated plasma samples at room temperature for 6 h, and extracted plasma samples in auto-sampler for 10 h, as well as placing plasma samples within freeze-thaw three cycles and at −80 °C for 15 days.

[2] = Stability in diluted SI at room temperature; conditions: analyzed at 0, 2, 4, 8, 12, 24, and 48 h
[3] = test system: H9c2 cardiomyocytes injured by H2O2; experiment: Protection of cardiomyocytes injured by H2O2 (MTT); type: cell-based; conditions: preliminary test at maximum detected plasma concentration
Experimental: H9c2 cardiomyocytes obtained from Cell Bank of the Chinese Academy of Sciences (Shanghai, China) were cultured in DMEM (high glucose) supplemented with 1% P/S and 15% FBS in 5% CO2 at 37°C. The cells were collected with 0.25% trypsin, followed by re-seeding in 96-well multiplates with a density of 5×10^3 cells per well. The cell experiments were grouped as follows: normal group, model group (H2O2), administration groups and positive control groups (N-Acetyl-L-cysteine, NAC). […] After that, cells were incubated with 0.5 mg/ml of MTT for 4 h under standard condition, followed by addition of 150 µl DMSO into every well. The cell supernatants were finally removed and the optical density (OD) was recorded at 570 nm using a microplate reader (Thermo Fisher Scientific, United States). The protection rate of the compounds on H9c2 cardiomyocytes was calculated as (OD valueadministration group (or NAC group)-OD valuemodel group)/(OD valuenormal group-OD valuemodel group) ×100%.

[4] = Multicomponent pharmacokinetics in rat plasma after i.v. safflower injection (SI); conditions: for AUC(0-inf) / AUC(0-t) / Cmax / MRT inf / MRT last / Vd / clearance / half-life: male, Sprague-Dawley, rat, plasma, iv
Experimental: The animal experiments were approved by the Animal Care and Use Committee of the College of Animal Science (College of Bee Science), Fujian Agriculture and Forestry University (Approval Number: PZCASFAFU21012). 250 ± 20 g of male Sprague-Dawley (SD) rats were provided by Lab Animal Center in Fujian Medical University (Fuzhou, China).
Ten rats were divided into three groups (Low dose group, n = 4; medium and high groups, n = 3, respectively). […] For each rat, 2 ml of physiological saline was supplemented after 30 min sampling via intraperitoneal injection. The plasma samples were obtained by centrifugation at 3,000 rpm for 10 min and stored at −20°C until analysis.
Clear supernatant (5 μl) was injected into HPLC-MS for bioanalysis.
The sample was separated on a RD-C18 column (4.6 mm × 50 mm, 3.5 μm, Zhongpu Develop, China). The mobile phase incudes water with 0.1% acetic acid (A) and acetonitrile (B). […] The column temperature, flow rate and injection volume were set at 30°C, 0.5 ml/min and 5 μl, respectively.
Non-compartmental model was used to calculate the PK parameters by DAS 3.0 software (Chinese Pharmacologic Society, Beijing, China). A single-tailed t-test was carried out in the study.

[5] = 1 h after administration (2 ml/kg of SI), preliminary test

Structure (SMILES) | 10h in auto-sampler vials RE ([1]; spiked 400 ng/mL) | 10h in auto-sampler vials RE ([1]; spiked 10000 ng/mL) | 6h at room temperature RE ([1]; spiked 400 ng/mL) | Freeze-thaw stability (three cycles) RE ([1]; spiked 400 ng/mL) | Long-term stability (-80℃,15 days) RE ([1]; spiked 400 ng/mL) | 6h at room temperature RE ([1]; spiked 10000 ng/mL) | Freeze-thaw stability (three cycles) RE ([1]; spiked 10000 ng/mL) | Long-term stability (-80℃,15 days) RE ([1]; spiked 10000 ng/mL) | Stability RSD [2] | detection in rat plasma [4, 5] | AUC(0-inf) ([4]; 2 ml/kg) | AUC(0-t) ([4]; 2 ml/kg) | Cmax ([4]; 2 ml/kg) | MRT inf ([4]; 2 ml/kg) | MRT last ([4]; 2 ml/kg) | Vd ([4]; 2 ml/kg) | clearance ([4]; 2 ml/kg) | half-life ([4]; 2 ml/kg) | AUC(0-inf) ([4]; 4 ml/kg) | AUC(0-t) ([4]; 4 ml/kg) | other results
O=C(O)/C=C/c1ccc(O)cc1 [p-CA, p-coumaric acid] | 0.06% | -4.10% | -2.50% | 3.70% | 1.40% | -2.72% | -1.55% | 6.82% | 3.29% | can be detected | 277 ± 84 ng·h/mL | 265 ± 89.7 ng·h/mL | 715 ± 85.8 ng/mL | 19.8 ± 0.6 min | 16.2 ± 1.8 min | 0.13 ± 0.07 L/kg | 6.67 mL/min/kg | 13.2 ± 3.6 min | 469 ± 38.1 ng·h/mL | 433 ± 44.5 ng·h/mL | 10h in auto-sampler vials RE ([1]; spiked 150 ng/mL): -6.50%; 6h at room temperature RE ([1]; spiked 150 ng/mL): -2.67%; Freeze-thaw stability (three cycles) RE ([1]; spiked 150 ng/mL): 0.13%; Long-term stability (-80℃,15 days) RE ([1]; spiked 150 ng/mL): -0.13%; protection ([3]; 8.5 μM): absence of protection; AUC(0-inf) ([4]; 1 ml/kg): 67.7 ± 57.2 ng·h/mL; AUC(0-t) ([4]; 1 ml/kg): 62.5 ± 50 ng·h/mL; Cmax ([4]; 1 ml/kg): 305 ± 147 ng/mL; MRT inf ([4]; 1 ml/kg): 7.2 ± 4.2 min; MRT last ([4]; 1 ml/kg): 6 ± 3 min; Vd ([4]; 1 ml/kg): 0.11 ± 0.03 L/kg; clearance ([4]; 1 ml/kg): 20.2 mL/min/kg; half-life ([4]; 1 ml/kg): 4.8 ± 3 min; Cmax ([4]; 4 ml/kg): 1260 ng/mL; MRT inf ([4]; 4 ml/kg): 19.2 ± 2.4 min; MRT last ([4]; 4 ml/kg): 15 ± 2.4 min; Vd ([4]; 4 ml/kg): 0.14 ± 0.03 L/kg; clearance ([4]; 4 ml/kg): 7.5 mL/min/kg; half-life ([4]; 4 ml/kg): 12.6 ± 3 min
O=Cc1ccc(O)cc1 [p-HBA, p-hydroxybenzaldehyde] | 0.63% | 4.23% | -3.70% | 4.05% | 0.45% | -3.91% | -3.10% | 3.02% | 4.11% | can be detected | 23.4 ± 5.21 ng·h/mL | 20.1 ± 4.4 ng·h/mL | 44.7 ± 5.13 ng/mL | 40.2 ± 6.6 min | 25.8 ± 2.4 min | 0.35 ± 0.04 L/kg | 8.83 mL/min/kg | 28.8 ± 6.6 min | 44 ± 45.2 ng·h/mL | 35.2 ± 31.1 ng·h/mL | 10h in auto-sampler vials RE ([1]; spiked 40 ng/mL): -2.50%; Freeze-thaw stability (three cycles) RE ([1]; spiked 40 ng/mL): 1.00%; Long-term stability (-80℃,15 days) RE ([1]; spiked 40 ng/mL): 14.50%; protection ([3]; 0.61 μM): absence of protection; detection in rat plasma ([4]; behind 15 min after i.v. low dose administration (1 ml/kg of SI)): can’t be detected; Cmax ([4]; 4 ml/kg): 74.3 ± 2.52 ng/mL; MRT inf ([4]; 4 ml/kg): 31.8 ± 31.8 min; MRT last ([4]; 4 ml/kg): 19.2 ± 15 min; Vd ([4]; 4 ml/kg): 0.34 ± 0.09 L/kg; clearance ([4]; 4 ml/kg): 16.5 mL/min/kg; half-life ([4]; 4 ml/kg): 23.4 ± 21 min; detected mean maximum plasma concentration ([4]; rats, after administration of 4 ml/kg of SI): 0.074 μg/mL and 0.61 μM
